Experimental data taken from US10544468B2, “Molecular markers and phenotypic screening for metribuzin tolerance” (Monsanto Technology LLC, priority 2012, dated 2020).

System: soybeans
Assay: Field screening for metribuzin tolerance in soybeans (injury rating, 1-9 scale)
Type: in vivo, Glycine max
Details: soybean lines containing a heterozygous (CT) allele of NGMAX006079502
Protocol: A rating scale that evaluates the degree of metribuzin sensitivity can also be employed to identify “metribuzin sensitive” and “metribuzin tolerant” plants. An exemplary and non-limiting scale for evaluating the Metribuzin sensitivity phenotype is as follows, where a low number corresponds to a “metribuzin tolerance” phenotype and the a high number correlates to a “metribuzin sensitivity” phenotype: Field screening for metribuzin tolerance in soybeans was performed at the Monsanto Company Soybean Research Station near Mount Olive, N.C. in 2010 and 2011. Metribuzin application rate was 0.5 lbs/acre metribuzin (Sencor®, Bayer Crop Science, Research Triangle Park, N.C., USA) one day prior to planting. Rows were planted as single 6′ row plots with 9 seed per foot. Multiple repetitions were grown per row. Within 24 hours after planting, the trial was irrigated with 0.5″ of water to help incorporate and activate the herbicide. Injury ratings were taken fourteen to twenty one (14-21) days after planting using a 1-9 scale (for example, 1=no damage, 9=completely killed). After identifying the target region through the mapping population described in Example 2, a molecular marker was identified. An association study was done using a soybean molecular marker database. […]

## CSc1nnc(C(C)(C)C)c(=O)n1N [Metribuzin, 4-Amino-6-(1,1-dimethylethyl)-3-(methylthio)-1,2,4-triazin-5(4H)-one]
  metribuzin phenotype in the field: mixed phenotype of both tolerance and sensitivity
